The subject of data set [1] is NCI-H1975. The data set can be described thus: Induction of oxidative phosphorylation in human NCI-H1975 cells assessed as increase in ATP production by luminescence based assay. It is filed as functional, cell-based.
For data set [2], the system named is NCI-H1975. The data set can be described thus: Induction of apoptosis in human NCI-H1975 cells assessed as live cells at 0.5 micromol/L incubated for 24 hrs by Annexin V-FITC/PI staining based analysis (reference value: 88.7%). It is filed as functional. The settings on record: dose 0.5 µmol/L, at 0.5 µM.
Data set [3] deals with NCI-H1975. As to the kind of experiment: Induction of apoptosis in human NCI-H1975 cells assessed as regulation of cleaved PARP expression by Western blot analysis. It is filed as functional, cell-based. On the technique in general: In western blotting, separated proteins are transferred to a membrane and probed.
Data set [4] concerns NCI-H1975. As to the kind of experiment: Induction of apoptosis in human NCI-H1975 cells with siRNA mediated […] knockdown assessed as early apoptotic cells at 2 micromol/L incubated for 24 hrs by Annexin V-FITC/PI staining based analysis (reference value: 2.54%). It is filed as functional. Conditions: dose 2 µmol/L, at 2 µM.
Data set [5] concerns NCI-H1975. The data set can be described thus: Antitumor activity against human NCI-H1975 cells xenografted in athymic nu/nu mouse assessed as damage in tumor tissue at 2.4 to 4.8 mg/kg, ip administered every 2 days for 11 days by H and E staining based analysis. It is filed as functional, organism-based. Conditions: dose 2.4-4.8 mg/kg, time 11.0 day. On the technique in general: A xenograft is tissue or cells of one species grown in another, often human tumour cells in immunodeficient mice.

Data set [6] deals with NCI-H1975. The data set can be described thus: Induction of apoptosis in human NCI-H1975 cells assessed as regulation of FADD expression by Western blot analysis. It is filed as functional, cell-based.
Data set [7] concerns NCI-H1975. The data set can be described thus: Downregulation of PDK1 protein expression in human NCI-H1975 cells at 1 to 2 micromol/L by Western blot analysis. It is filed as functional, cell-based. The settings on record: dose 1-2 µmol/L.
The subject of data set [8] is HCC827. As to the kind of experiment: Downregulation of PDK1 protein expression in human HCC827 cells at 1 to 2 micromol/L by Western blot analysis. It is filed as functional, cell-based. Conditions: dose 1-2 µmol/L.
Data set [9] is described as follows: Acute toxicity in ICR mouse assessed as damage in vital organs at 2.4 to 38.4 mg/kg, ip measured after 15 days by H and E staining based analysis. It is filed as organism-based. The settings on record: in vivo, 360 h, dose 2.4-38.4 mg/kg, time 15 day.
In data set [10] the test system is NCI-H1299. The data set can be described thus: Induction of apoptosis in human NCI-H1299 cells assessed as early apoptotic cells at 2 micromol/L incubated for 24 hrs by Annexin V-FITC/PI staining based analysis (reference value: 2.43%). It is filed as functional. The settings on record: dose 2 µmol/L, at 2 µM.
The test system of data set [11] is NCI-H1975. The data set can be described thus: Induction of apoptosis in human NCI-H1975 cells assessed as live cells at 0.5 micromol/L incubated for 24 hrs in presence of gefitinib by Annexin V-FITC/PI staining based analysis (reference value: 88.7%). Conditions: dose 0.5 µmol/L, at 0.5 µM. It is filed as functional.
Data set [12] has as its system NCI-H1975. The data set can be described thus: Antiproliferative activity against human NCI-H1975 cells transfected with siRNA assessed as inhibition of cell growth incubated for 24 hrs by CCK-8 assay. It is filed as functional, cell-based. Conditions: NCI-H1975, 24 h. In general terms: Tetrazolium assays rely on reduction of a dye to a coloured formazan, in cell work by metabolically active cells.

Data set [13] has as its system NCI-H1975. The data set can be described thus: Induction of apoptosis in human NCI-H1975 cells assessed as regulation of cleaved caspase-8 expression by Western blot analysis. It is filed as functional, cell-based.
For data set [14], the system named is NCI-H1975. As to the kind of experiment: Induction of apoptosis in human NCI-H1975 cells transfected with siRNA assessed as early apoptotic cells at 2 micromol/L incubated for 24 hrs by Annexin V-FITC/PI staining based analysis (reference value: 1.16%). Conditions: dose 2 µmol/L, at 2 µM. It is filed as functional.
Data set [15] concerns NCI-H1975. The data set can be described thus: Induction of apoptosis in human NCI-H1975 cells assessed as late apoptotic cells at 0.5 micromol/L incubated for 24 hrs by Annexin V-FITC/PI staining based analysis (reference value: 8.61%). The settings on record: dose 0.5 µmol/L, at 0.5 µM. It is filed as functional.
Data set [16] relates to NCI-H1975. As to the kind of experiment: Induction of apoptosis in human NCI-H1975 cells transfected with siRNA assessed as late apoptotic cells at 2 micromol/L incubated for 24 hrs by Annexin V-FITC/PI staining based analysis (reference value: 4.03%). It is filed as functional. The settings on record: dose 2 µmol/L, at 2 µM.
Data set [17] relates to NCI-H1975. As to the kind of experiment: Induction of apoptosis in human NCI-H1975 cells assessed as late apoptotic cells at 2 micromol/L incubated for 24 hrs by Annexin V-FITC/PI staining based analysis (reference value: 2.66%). It is filed as functional. The settings on record: dose 2 µmol/L, at 2 µM.
Data set [18] relates to NCI-H1975. The data set can be described thus: Antitumor activity against human NCI-H1975 cells xenografted in athymic nu/nu mouse assessed as induction of apoptosis in tumor at 2.4 to 4.8 mg/kg, ip administered every 2 days for 11 days by TUNEL assay. It is filed as functional, organism-based. The settings on record: dose 2.4-4.8 mg/kg, time 11.0 day.
The subject of data set [19] is NCI-H1975. The data set can be described thus: Induction of apoptosis in human NCI-H1975 cells assessed as early apoptotic cells at 2 micromol/L incubated for 24 hrs by Annexin V-FITC/PI staining based analysis (reference value: 1.88%). Conditions: dose 2 µmol/L, at 2 µM. It is filed as functional.
Data set [20] concerns HCC827. The data set can be described thus: Induction of intracellular ROS accumulation in human HCC827 cells. It is filed as functional, cell-based.
The test system of data set [21] is NCI-H1975. The data set can be described thus: Induction of apoptosis in human NCI-H1975 cells transfected with siRNA assessed as early apoptotic cells at 1 micromol/L incubated for 24 hrs by Annexin V-FITC/PI staining based analysis (reference value: 1.16%). It is filed as functional. Conditions: dose 1 µmol/L, at 1 µM.
For data set [22], the system named is NCI-H1975. As to the kind of experiment: Antitumor activity against human NCI-H1975 cells xenografted in athymic nu/nu mouse assessed as reduction in tumor size at 2.4 to 4.8 mg/kg, ip administered every 2 days for 11 days by vernier caliper method. It is filed as functional, organism-based. Conditions: dose 2.4-4.8 mg/kg, time 11.0 day.

The structures appear in SMILES notation. Calls of active or inactive are those of the source. No cut-off for these calls is given here.

On to `COC(=O)[C@H](CS[C@H](CC=C(C)C)C1=CC(=O)c2c(O)ccc(O)c2C1=O)NC(=O)CCCC[C@@H]1CCSC(c2ccccc2C)S1` (some centres not stated), for which the outcome in data set [1], in data set [3], in data set [5], in data set [6], in data set [13] and in data set [18] was Active. The outcome in data set [20] and in data set [22] was Active. The Activity in [2] is given as 87.3%; in data set [4], 2.67%; in data set [9], “Non-Toxic”; in data set [10], 2.68%; in data set [11], 57.5%; in data set [14], 8.24%. The Activity in data set [15] is 11.2%; in [16], 9.4%; in [17], 37.3%; in data set [19] it was 22.2%; in [21], 3.44%. The outcome in [7] and in data set [8] was inactive. In addition, the half-maximal inhibitory concentration (IC50) (commonly the concentration that inhibits the measured activity by half) in data set [12] was 3.5 µM.

Values taken from ChEMBL document CHEMBL5346899, “PKM2/PDK1 dual-targeted shikonin derivatives restore the sensitivity of EGFR-mutated NSCLC cells to gefitinib by remodeling glucose metabolism” (Eur J Med Chem, 2023).
